The values below are quoted from earlier work in EP2749553A1, “Process for preparation of enantiomerically pure S-(+)-N, N-dimethyl-a-[2-(naphthalenyloxy)ethyl] benzenemethanamine” (Deva Holding Anonim Sirketi, priority 2012, dated 2014).

For data set [1] the following is noted: clinical studies; (S)- versus (R)-enantiomer.
For data set [2] the following is noted: free base.

Molecules are shown by their SMILES.

With `CN(C)[C@@H](CCOc1cccc2ccccc12)c1ccccc1` [Dapoxetine, S-(+)-N, N-dimethyl-a-[2-(naphthalenyloxy)ethyl] benzenemethanamine], in data set [1], the “times more potent than (R)-enantiomer” value is listed as 3.5 times. In data set [2], the in vivo solubility entry is on record as “poor” and the water solubility entry was “poor”. The in vivo absorption entry (free base) is “low”. The “initial plasma half life” value (plasma) is “about 1 h”. Besides, the initial half-life (rapid elimination) is 1 to 2 h.
